Reference: PMC3071879 (Journal of the American Chemical Society, 2011)

Assays:
Type in all cases: biochemical
PacV = PacV (Streptomyces coeruleorubidus, UniProt E2EKQ4); assay: SDS-PAGE autoradiography of […]-methyl transfer; conditions: methyl acceptor DABA tethered to holo-PacP; labelled compound
PacU = molecular target: T1, PacU (Streptomyces coeruleorubidus, UniProt E2EKQ3); assay: ATP-[…]PPi exchange; conditions: adenylation
T1 sequence (E2EKQ3 1-507): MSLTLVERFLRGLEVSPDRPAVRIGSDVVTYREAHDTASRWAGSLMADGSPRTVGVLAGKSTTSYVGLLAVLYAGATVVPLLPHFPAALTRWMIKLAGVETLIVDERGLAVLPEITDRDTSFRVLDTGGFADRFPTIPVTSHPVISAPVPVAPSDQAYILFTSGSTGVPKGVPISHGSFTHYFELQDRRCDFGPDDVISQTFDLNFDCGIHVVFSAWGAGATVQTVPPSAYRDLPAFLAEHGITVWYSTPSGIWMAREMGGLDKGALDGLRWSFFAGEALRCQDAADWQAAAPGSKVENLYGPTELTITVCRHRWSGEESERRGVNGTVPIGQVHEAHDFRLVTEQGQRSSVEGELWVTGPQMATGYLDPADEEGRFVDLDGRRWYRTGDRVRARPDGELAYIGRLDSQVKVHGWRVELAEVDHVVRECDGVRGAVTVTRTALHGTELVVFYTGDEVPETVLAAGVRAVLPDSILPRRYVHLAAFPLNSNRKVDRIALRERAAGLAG

PacW = molecular target: T2, PacW (Streptomyces coeruleorubidus, UniProt F5BFC7); assay: ATP-[…]PPi exchange; conditions: adenylation, DL mixture used
T2 sequence (F5BFC7 1-507): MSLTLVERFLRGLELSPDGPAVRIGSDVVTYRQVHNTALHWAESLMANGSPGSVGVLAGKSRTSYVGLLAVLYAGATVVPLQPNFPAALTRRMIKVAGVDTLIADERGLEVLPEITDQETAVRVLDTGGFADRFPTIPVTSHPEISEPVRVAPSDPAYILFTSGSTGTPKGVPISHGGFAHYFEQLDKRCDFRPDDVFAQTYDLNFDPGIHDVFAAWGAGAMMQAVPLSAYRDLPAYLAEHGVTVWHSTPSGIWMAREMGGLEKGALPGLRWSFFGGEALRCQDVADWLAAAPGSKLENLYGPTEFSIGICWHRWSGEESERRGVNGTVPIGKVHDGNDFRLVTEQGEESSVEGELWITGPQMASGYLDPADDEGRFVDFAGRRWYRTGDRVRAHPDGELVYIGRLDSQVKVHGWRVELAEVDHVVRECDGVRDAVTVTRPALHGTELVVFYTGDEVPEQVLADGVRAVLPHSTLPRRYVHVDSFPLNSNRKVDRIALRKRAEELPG

PacP = molecular target: T3, PacP (Streptomyces coeruleorubidus, UniProt E2EKP8); assay: ATP-[…]PPi exchange; conditions: adenylation
T3 sequence (E2EKP8 1-848): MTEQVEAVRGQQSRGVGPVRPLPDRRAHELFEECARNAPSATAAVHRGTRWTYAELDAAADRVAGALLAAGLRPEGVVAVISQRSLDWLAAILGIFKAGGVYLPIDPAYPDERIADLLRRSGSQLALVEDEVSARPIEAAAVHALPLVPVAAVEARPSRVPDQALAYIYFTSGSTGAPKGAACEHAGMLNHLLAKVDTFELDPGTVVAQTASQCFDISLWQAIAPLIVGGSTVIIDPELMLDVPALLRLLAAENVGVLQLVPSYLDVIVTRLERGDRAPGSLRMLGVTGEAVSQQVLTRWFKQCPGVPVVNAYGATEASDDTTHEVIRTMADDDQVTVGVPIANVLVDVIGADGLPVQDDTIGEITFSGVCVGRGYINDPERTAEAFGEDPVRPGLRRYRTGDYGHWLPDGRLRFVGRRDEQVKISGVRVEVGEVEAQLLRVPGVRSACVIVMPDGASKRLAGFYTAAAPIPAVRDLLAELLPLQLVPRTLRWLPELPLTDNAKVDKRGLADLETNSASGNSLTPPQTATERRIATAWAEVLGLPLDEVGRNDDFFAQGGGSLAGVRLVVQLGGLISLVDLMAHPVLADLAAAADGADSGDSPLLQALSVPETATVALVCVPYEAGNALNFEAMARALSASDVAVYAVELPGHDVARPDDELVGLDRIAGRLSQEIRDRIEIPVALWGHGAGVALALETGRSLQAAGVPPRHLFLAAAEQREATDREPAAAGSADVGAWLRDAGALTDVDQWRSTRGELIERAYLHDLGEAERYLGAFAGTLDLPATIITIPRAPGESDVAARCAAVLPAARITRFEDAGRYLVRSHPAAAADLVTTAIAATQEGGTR

Chain of PacV (E2EKQ4 1-250): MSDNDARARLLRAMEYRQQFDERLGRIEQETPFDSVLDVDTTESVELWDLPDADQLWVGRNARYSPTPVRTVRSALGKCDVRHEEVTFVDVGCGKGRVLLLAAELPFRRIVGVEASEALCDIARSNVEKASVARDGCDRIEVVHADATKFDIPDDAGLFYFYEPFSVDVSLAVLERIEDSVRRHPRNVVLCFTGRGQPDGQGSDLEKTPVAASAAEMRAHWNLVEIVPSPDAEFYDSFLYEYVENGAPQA

## C[S+](CC[C@H](N)C(=O)O)C[C@H]1O[C@@H](n2cnc3c(N)ncnc32)[C@H](O)[C@@H]1O (stereo partly shown) [S-adenosylmethionine]
PacV
  SDS-PAGE autoradiography of 14C-methyl transfer: PacV indeed transferred the methyl group from S-adenosylmethionine (SAM) to holo-PacP

## C[C@H](N)C(=O)O [L-Ala]
PacU
  ATP-[32P]PPi exchange: exhibited a strong preference toward reversible formation of L-Ala-AMP

## NC(Cc1cccc(O)c1)C(=O)O (racemic) [m-Tyr]
PacW
  ATP-[32P]PPi exchange: demonstrated a strong preference for the activation of m-Tyr over other aromatic amino acids

## C[C@H](N)[C@H](N)C(=O)O [2S,3S-DABA]
PacP
  ATP-[32P]PPi exchange: PacP exhibited a preference toward reversible formation of 2S,3S-DABA-AMP
